Active and inactive are the calls of the source.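 Rule for the calls: active = compounds giving half or more protection of infected cells from virus-caused growth loss, again on retest; inactive = the rest.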

Here are results for 52 compounds from PubChem BioAssay AID179 (DTP/NCI, 2004).

For this test, the system named is CEM cells HIV-1 protection, formazan growth assay. As to the kind of experiment: NCI AIDS Antiviral Assay. The settings on record: for IC50: measured here: growth of uninfected CEM cells. The procedure, abridged:
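Human CEM cells, uninfected and HIV-1-infected, exposed to five drug concentrations; growth measured by soluble formazan assay and scored as percent protection from infection, with protecting compounds retested.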

For `O=S(=O)(O)CN(CS(=O)(=O)O)c1nc(N(CS(=O)(=O)O)CS(=O)(=O)O)nc(N(CS(=O)(=O)O)CS(=O)(=O)O)n1`, the EC50 was greater than 100 µM and the 50% inhibitory concentration (IC50) turned out to be 15.5 µM.

For the compound `Nc1nc(Cl)cc(NC2(CO)CCC2)n1`, the EC50 was greater than 200 µM and the 50% inhibitory concentration (IC50) was greater than 200 µM.

In the case of `Cc1ccccc1N=O`, the EC50 is greater than 200 µM and the IC50 amounted to 9.77 µM.

On to `CCN(CC)CCC(=O)c1ccc(Cl)c(Cl)c1`, for which the EC50 is greater than 5010 µM and the IC50 is greater than 5010 µM.

Regarding `O=C(O)O`, the result was inactive.

Consider `CC(C)(C)C1=NC(=S)SC2=NC(=O)C3(NN21)c1ccccc1-c1ccccc13`, for which the EC50 is greater than 200 µM and the IC50 turned out to be 20 µM.

Regarding `CC1(C)CCCC2(C)[C@@H]1CC[C@]13C[C@](C)(CC[C@@H]21)[C@@H]3CO` (some centres not stated), the EC50 is greater than 12.3 µM and the 50% inhibitory concentration (IC50) was greater than 12.3 µM.

Take `CC1CCOn2c1nc1ccccc1c2=O` (configuration not stated): the EC50 was greater than 33.1 µM and the IC50 was greater than 33.1 µM.

Regarding `CN(C)c1ccc(C(=CC=C2c3ccccc3C(=O)c3ccccc32)c2ccc(N(C)C)cc2)cc1`, the EC50 is greater than 3.09 µM and the IC50 was greater than 3.09 µM.

As for `O=C(CCC(=O)c1ccsc1)c1ccsc1`, the EC50 is greater than 200 µM and the concentration for half-maximal inhibition (IC50) is greater than 200 µM.

Regarding `CCN(CC)C(=S)SS(=O)(=O)c1ccc(Cl)cc1`, the EC50 was greater than 200 µM and the concentration for half-maximal inhibition (IC50) came out at 12 µM.

As for `COc1cc(C2c3cc(O)c(OC)cc3C[C@@H]3C(=O)OCC23)ccc1O` (some centres not stated), the EC50 is greater than 263 µM and the IC50 is greater than 263 µM.

With `Oc1cnc2c(O)cccc2c1`, the EC50 is greater than 200 µM and the IC50 stood at 17.8 µM.

For the compound `Cc1ccc(S(=O)(=O)N(CC(=O)O)c2c[nH]c(C(=O)O)c2)cc1`, the EC50 was greater than 200 µM and the IC50 was greater than 200 µM.

`CCN(CC)c1oc(N(CC)CC)c(C(=O)Nc2ccccn2)c(=O)c1C(C)=O`: the EC50 was greater than 631 µM and the half-inhibitory concentration (IC50) was 251 µM.

For the compound `COc1ccc(/C=C2/SC(=Nc3ccccc3)N(NC(=O)Cc3ccccc3)C2=O)cc1`, the EC50 is greater than 214 µM and the IC50 came out at 148 µM.

As for `O=C(O)CCN(CCCN(CCC(=O)O)CCC(=O)O)CCC(=O)O`, the EC50 was greater than 575 µM and the IC50 turned out to be 8.13 µM.

Regarding `O=C(/C=C/c1ccccc1)c1ccc(Cl)cc1Cl`, the EC50 was greater than 2.69 µM and the IC50 is greater than 2.69 µM.

In the case of `CNc1[nH]c(=S)nc2sc3c(c12)CCCC3`, the EC50 is greater than 151 µM and the IC50 worked out at 112 µM.

Regarding `CCC[CH2][Sn]([CH2]CCC)([CH2]CCC)[CH2]N1CCC(=O)C[C@@H]1C/C=C/[P@]1(=O)O[C@H](c2ccccc2)C(C)N1C(C)C` (some centres not stated), the result was inactive.

For `CC1=CC2OC3CC4OC(=O)/C=C/C=C/C(=O)OCCC(C)C(O)C(=O)OCC2(CC1O)C4(C)C31CO1` (configuration not stated), the EC50 was greater than 0.2 µM and the IC50 was 0.00347 µM.

Regarding `CCCN(CCC)c1cc2c(cc1F)c(=O)c(C(=O)O)cn2-c1ccc(N2CCN(C)CC2)cn1`, the EC50 was greater than 200 µM and the IC50 worked out at 14.8 µM.

As to `CC(=O)O[C@H]1CCC(C)=CCC[C@@]2(C)C(CC[C@@H]2[C@@H](C)/C=C/C(C)C)c2ccc(cc2C(=O)O)C1` (some centres not stated), the result was inactive.

Consider `C/C(=N/NC(=O)C(N)=O)C(CC(C(=O)Nc1ccccc1C)/C(C)=N\NC(=O)C(N)=O)C(=O)Nc1ccccc1C` (configuration not stated), for which the EC50 was greater than 158 µM and the IC50 came to 79.4 µM.

In the case of `CCOC(=O)/C(C#N)=C/c1ccc2c(c1)CC1(C2)Cc2cc(CC)c(C(C)O)cc2C1` (configuration not stated), the EC50 was greater than 200 µM and the IC50 turned out to be 3.63 µM.

In the case of `Cc1nc2ccc(S(=O)(=O)Nc3ccccc3Cl)cc2c(=O)n1NC(=O)CNc1ccccc1Cl`, the EC50 was greater than 200 µM and the IC50 came to 170 µM.

In the case of `CCc1nnc2c3cc4ccccc4n3cnn12`, the EC50 was greater than 151 µM and the IC50 was greater than 151 µM.

Take `Cn1c(N)c(-c2c3ccccc3nc3ccccc23)c(=O)n(C)c1=O`: the EC50 is greater than 40.7 µM and the half-maximal inhibitory concentration (IC50) is greater than 40.7 µM.

Regarding `Cc1cn(C(C)OCCN2C(=O)c3ccccc3C2=O)c(=O)[nH]c1=O` (configuration not stated), the EC50 is greater than 200 µM and the IC50 is greater than 200 µM.

Regarding `O=C(Nc1ccc(Cl)cc1Cl)C1C(=O)OC2(CCCCC2)OC1=O`, the EC50 is greater than 200 µM and the IC50 was determined as 13.8 µM.

With `O=C(N=Nc1ccccc1Cl)NNc1ccccc1Cl`, the EC50 is greater than 200 µM and the IC50 came to 31.6 µM.

In the case of `O=Nc1cc(S(=O)(=O)O)c2ccccc2c1O`, the EC50 was greater than 200 µM and the IC50 is greater than 200 µM.

On to `COc1ccc2c3c(c(C(=O)O)oc13)CCC2`, for which the outcome was inactive.

Regarding `COc1ccc2c(O)c(S(=O)(=O)c3ccc(C)cc3)c(=O)oc2c1OC`, the EC50 was greater than 100 µM and the IC50 is greater than 100 µM.

For the compound `O=[N+]([O-])/C(C=Nc1ccccc1)=C/Nc1ccccc1`, the EC50 was greater than 200 µM and the IC50 stood at 105 µM.

For the compound `C=CC(C1=CC(=O)C(OC)=CC1=O)c1ccccc1` (configuration not stated), the outcome was inactive.

`CCOC(=O)c1c(NC(=O)C(F)(F)F)[nH]c(SSc2[nH]c(NC(=O)C(F)(F)F)c(C(=O)OCC)c2C(=O)OCC)c1C(=O)OCC`: the EC50 was greater than 89.1 µM and the IC50 is 4.27 µM.

Take `NNC(=O)c1ccccc1NC(=O)/C(=C/c1ccccc1O)NC(=O)c1ccccc1`: the EC50 was greater than 200 µM and the IC50 is greater than 200 µM.

Turning to `C=C1CC(C)(COc2ccc3c(C)c(C)c(=O)oc3c2C)OC1=O` (configuration not stated), the EC50 was greater than 2 µM and the concentration for half-maximal inhibition (IC50) turned out to be 0.891 µM.

On to `C/C(CC(=O)Nc1cccc(Cl)c1C)=N\NC(=O)c1ccncc1`, for which the EC50 was greater than 275 µM and the IC50 turned out to be 129 µM.

As to `O=C(NN1C(=O)C(Cl)C1c1cccc(O)c1)c1ccccc1O` (configuration not stated), the EC50 was greater than 151 µM and the IC50 was found to be 141 µM.

For the compound `c1csc(-c2cc(-c3ccsc3)c(-c3ccsc3)s2)c1`, the EC50 is greater than 200 µM and the IC50 is 148 µM.

For `Cc1cc(N(CCC#N)CCC#N)ccc1N=Nc1ccccc1[N+](=O)[O-]`, the EC50 was greater than 14.5 µM and the IC50 was greater than 14.5 µM.

Consider `NS(=O)(=O)c1nnc(NS(=O)(=O)c2ccc(Cl)cc2)s1`, for which the EC50 was greater than 200 µM and the IC50 was greater than 200 µM.

In the case of `CCOC(=O)c1cnc2cc3cccccc3n2c1=O`, the outcome was inactive.

Consider `Nc1ncnc2c1sc(=S)n2-c1ccccc1`, for which the EC50 was greater than 52.5 µM and the IC50 is greater than 52.5 µM.

In the case of `O=C(O)c1ccccc1SCc1cc(O)ccc1O`, the EC50 was greater than 200 µM and the IC50 came to 30.9 µM.

On to `C=C/C(C)=C/[C@H](C)C(=O)C[C@H](O)CC1CC(=O)NC(=O)C1`, for which the result was inactive.

For `Cc1csc2[n+]1C(=O)/C(=C\c1ccc([N+](=O)[O-])cc1)S2`, the EC50 is greater than 200 µM and the 50% inhibitory concentration (IC50) is 29.5 µM.

For `COc1ccc(C2c3cc4c(cc3OC(Nc3ccccc3)C2C)OCO4)cc1` (configuration not stated), the EC50 is greater than 200 µM and the 50% inhibitory concentration (IC50) stood at 24.5 µM.

In the case of `COC1/C=C/OC2(C)Oc3c(C)c(O)c4c(O)c(c(/C=N/N5CCOCC5)c(O)c4c3C2=O)NC(=O)C(C)=C/C=C\C(C)C(O)C(C)C(O)C(C)C(O)C1C` (configuration not stated), the EC50 is greater than 126 µM and the IC50 worked out at 72.4 µM.

As to `COc1nc(N=[N+]=[N-])nc(-c2c(OC)ccc3ccccc23)n1`, the EC50 is greater than 200 µM and the IC50 stood at 47.9 µM.

A word on the EC50: it is the concentration giving half of the maximal effect. In general, IC50 refers to the concentration that gives 50% inhibition. Read a low IC50 as higher potency.
